# From the supplement of paper PMC10307832
# Tests used:
# Test in all cases: relative viability (nuclei count vs DMSO), 5 days (fraction); higher = more cells survive
# [1] = compound: CC1=C(C=CC(=C1)[N+](=O)[O-])NS(=O)(=O)C2=C(C=CC(=C2)Cl)Cl [FH535] + CC1(C)CCC(c2ccc(Cl)cc2)=C(CN2CCN(c3ccc(C(=O)NS(=O)(=O)c4ccc(N[C@H](CCN5CCOCC5)CSc5ccccc5)c(S(=O)(=O)C(F)(F)F)c4)cc3)CC2)C1 [Navitoclax] (partner 0.5 µM)
# Summary of the method: (§1)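 Cells from lung cancer lines were seeded into 1536-well plates and, one day later, dosed by pin tool. Treatments were either a single drug or a fixed dose of an anchor drug with five library-drug doses (not always all listed) in √10 steps. After 5 days, nuclei were stained in a one-step fixation (final 0.05% Triton X-100, 1% formaldehyde, 1 ug/ml Hoechst) and counted on 4× images, and relative viability is the treated-to-vehicle nuclei ratio, as the median of duplicate plates.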
# [2] = compound: CC1=C(C=CC(=C1)[N+](=O)[O-])NS(=O)(=O)C2=C(C=CC(=C2)Cl)Cl [FH535] + CC(=O)Nc1cccc(-n2c(=O)n(C3CC3)c(=O)c3c(Nc4ccc(I)cc4F)n(C)c(=O)c(C)c32)c1 [Trametinib] (partner 0.02 µM)
# Summary of the method: as §1
# [3] = compound: CC1=C(C=CC(=C1)[N+](=O)[O-])NS(=O)(=O)C2=C(C=CC(=C2)Cl)Cl [FH535] + COc1cc2c(Oc3ccc(NC(=O)C4(C(=O)Nc5ccc(F)cc5)CC4)cc3F)ccnc2cc1OCCCN1CCOCC1 [Foretinib] (partner 0.25 µM)
# Summary of the method: as §1
# [4] = compound: CC1=C(C=CC(=C1)[N+](=O)[O-])NS(=O)(=O)C2=C(C=CC(=C2)Cl)Cl [FH535] + Cc1nc(Nc2ncc(C(=O)Nc3c(C)cccc3Cl)s2)cc(N2CCN(CCO)CC2)n1 [Dasatinib] (partner 0.075 µM)
# Summary of the method: as §1
# [5] = compound: CC1=C(C=CC(=C1)[N+](=O)[O-])NS(=O)(=O)C2=C(C=CC(=C2)Cl)Cl [FH535] + CS(=O)(=O)CCNCc1ccc(-c2ccc3ncnc(Nc4ccc(OCc5cccc(F)c5)c(Cl)c4)c3c2)o1 [Lapatinib] (partner 2 µM)
# Summary of the method: as §1
Cell Line,relative viability ([1]; first compound 0.04 µM),relative viability ([1]; first compound 0.1265 µM),relative viability ([1]; first compound 0.4 µM),relative viability ([1]; first compound 1.265 µM),relative viability ([2]; first compound 0.04 µM),relative viability ([2]; first compound 0.1265 µM),relative viability ([2]; first compound 0.4 µM),relative viability ([2]; first compound 1.265 µM),relative viability ([3]; first compound 0.04 µM),relative viability ([3]; first compound 0.1265 µM),relative viability ([3]; first compound 0.4 µM),relative viability ([3]; first compound 1.265 µM),relative viability ([4]; first compound 0.04 µM),relative viability ([4]; first compound 0.1265 µM),relative viability ([4]; first compound 0.4 µM),relative viability ([4]; first compound 1.265 µM),relative viability ([5]; first compound 0.04 µM),relative viability ([5]; first compound 0.1265 µM),relative viability ([5]; first compound 0.4 µM),relative viability ([5]; first compound 1.265 µM)
EKVX,0.976,0.849,0.924,0.789,0.319,0.391,0.292,0.293,0.792,0.629,0.744,0.587,0.336,0.705,0.511,0.243,0.179,0.221,0.227,0.187
EMC-BAC-2,1.17,1.19,1.2,1.02,0.804,0.9,0.869,0.892,0.978,0.97,0.997,0.809,0.302,0.358,0.317,0.319,0.788,0.926,0.894,0.813
EPLC-272H,1.04,1.22,1.07,0.926,0.272,0.296,0.299,0.262,0.586,0.852,0.72,0.562,0.283,0.318,0.311,0.281,0.677,1.1,0.827,0.831
H3255,0.514,0.338,0.416,0.26,0.563,0.604,0.582,0.55,0.817,0.803,0.794,0.496,0.341,0.473,0.408,0.346,0.214,0.252,0.266,0.199
HARA,1.14,1.17,1.15,0.931,0.759,0.711,0.643,0.461,0.814,0.969,0.88,0.477,0.358,0.194,0.205,0.182,0.743,0.802,0.8,0.73
HCC-15,0.624,0.739,0.613,0.482,0.288,0.358,0.406,0.316,0.988,1.06,0.965,0.639,0.552,0.632,0.505,0.49,0.825,0.679,0.733,0.534
HCC-44,1.06,1.04,0.911,0.74,1.06,0.986,1.03,0.967,,,,,,,,,1.06,1.03,0.977,0.773
HCC-78,0.612,1.04,0.782,0.718,0.694,0.713,0.602,0.665,0.565,0.561,0.608,0.51,0.33,0.514,0.342,0.427,0.694,0.321,0.701,0.697
